Structures can show the parent of a compound that is named as a salt.
Key:
BRD4-FL = target: T1, BRD4-FL (Homo sapiens, UniProt O60885); assay: BET Bromodomain AlphaScreen assay (Example 9), BRD4-FL; type: binding
T1 construct: BRD4-FL: Full length BRD4
Experimental: (§1) The reader assay was a binding assay using the AlphaScreen technology fluorescence energy resonance transfer (FRET) assay. The biotinylated peptide binding to the reader domain of His-tagged protein is monitored by the singlet oxygen transfer from the Streptavidin-coated donor beads to the AlphaScreen Ni-chelate acceptor beads.
(§2) Reaction buffer: 50 mM Hepes, pH7.5, 100 mM NaCl, 0.05% CHAPS, 0.1% BSA, and 1% DMSO (Buffer and DMSO concentration may be different for different reader).
(§3) Biotin-peptide; sequences were different for different targets.
(§4) Reaction Procedure: • 1. Deliver 4× BRD in wells of reaction plate except No BRD control wells. Add buffer instead. • 2. Deliver compounds in 100% DMSO into the BRD mixture by Acoustic technology (Echo550; nanoliter range). Spin down and pre-incubation for 30 min. • 3. Deliver 4× Ligand. Spin and shake. • 4. Incubate for 30 min at room temperature with gentle shaking. • 5. Deliver 4× donor beads. Spin and shake. • 6. Deliver 4× acceptor beads. Spin and shake. Then gentle shaking in the dark for 60 min. • 7.

BRD2-1: Domain 1 of BRD2 = target: T2, BRD2-1: Domain 1 of BRD2 (Homo sapiens, UniProt P25440); assay: Bromodomain binding assay (Example 6), BRD2-1
T2 construct: BRD2-1: Domain 1 of BRD2
T2 sequence (P25440 74-180 limits assumed): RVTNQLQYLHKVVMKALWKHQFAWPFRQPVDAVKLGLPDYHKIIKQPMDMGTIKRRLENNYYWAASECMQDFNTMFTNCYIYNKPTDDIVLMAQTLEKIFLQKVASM
Experimental: (§5) The binding of the compounds of the application to bromodomains BRD2, BRD3 and BRD4 was assessed using a time resolved fluorescent resonance energy transfer binding assay (Alpha Screen Technology), that measures the binding of an acetylated histone peptide to the bromodomain protein.
(§6) The bromodomain protein, histone peptide and a variable concentration of test compound were incubated together to reach thermodynamic equilibrium.

BRD3-1: Domain 1 of BRD3 = target: T3, BRD3-1: Domain 1 of BRD3 (Homo sapiens, UniProt Q15059); assay: Bromodomain binding assay (Example 6), BRD3-1
T3 construct: BRD3-1: Domain 1 of BRD3
T3 sequence (Q15059 34-140 limits assumed): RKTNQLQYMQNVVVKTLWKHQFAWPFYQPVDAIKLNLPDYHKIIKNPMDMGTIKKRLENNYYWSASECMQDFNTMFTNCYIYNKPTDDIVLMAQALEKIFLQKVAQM
Experimental: as §5, §6

BRD2-1 = target: T4, BRD2-1 (Homo sapiens, UniProt P25440); assay: BET Bromodomain AlphaScreen assay (Example 9), BRD2-1; type: binding
T4 construct: BRD2-1: Domain 1 of BRD2
T4 sequence (P25440 74-180 limits assumed): as the sequence (P25440 74-180 limits assumed) above
Experimental: as §1, §2, §3, §4

[1] = target: T5, BRD4-FL: Full length BRD4 (Homo sapiens, UniProt O60885); assay: Bromodomain binding assay (Example 6), BRD4-FL
T5 construct: BRD4-FL: Full length BRD4
Experimental: as §5, §6

BRD3-1 = target: T6, BRD3-1 (Homo sapiens, UniProt Q15059); assay: BET Bromodomain AlphaScreen assay (Example 9), BRD3-1; type: binding
T6 construct: BRD3-1: Domain 1 of BRD3
T6 sequence (Q15059 34-140 limits assumed): as the sequence (Q15059 34-140 limits assumed) above
Experimental: as §1, §2, §3, §4

[2] = Liver microsome stability, human; type: in vitro ADME; details: pooled human liver microsomes (50 donors), 1 μM compound, 0.5 mg/ml microsomes, 37° C., read-out: % recovery Human Liver Microsomes (HLM) (30 min)
Experimental: (§7) Working stocks were initially diluted to a concentration of 40.0 μM in 0.1 M potassium phosphate buffer before addition to the reaction vials. Pooled mouse (CD-1, male) or human (50 donors) liver microsomes were utilized at a final concentration of 0.5 mg/ml. Duplicate wells were used for each time point (0 and 30 minutes). Reactions were carried out at 37° C. in a shaker, and the final concentration of DMSO was kept constant at 0.01%. The final volume for each reaction was 100 μL, which includes the addition of an NADPH-Regeneration solution (NRS) mix. This NRS mix was comprised of glucose 6-phosphate dehydrogenase (0.4 U/mL), NADP+ (1.3 mM), MgCl2 (3.3 mM), and glucose 6-phosphate (3.3 mM) in assay mixtures. Upon completion of the 30 minute time point, reactions were terminated by the addition of 1.5-volumes (150 μL) of ice-cold, acetonitrile with 0.5% formic acid and internal standard. Samples were then centrifuged at 4,000 rpm for 10 minutes to remove debris and precipitated protein. Approximately 150 μL of supernatant was subsequently transferred to a new 96 well microplate for LC/MS analysis.
(§8) Narrow-window mass extraction LC/MS analysis was performed for all samples using a Waters Xevo quadrupole time-of-flight (QTof) mass spectrometer and an ACQUITY UPLC system, to determine relative peak areas of parent compound.

[3] = tested on: MM.1S subcutaneous human multiple myeloma xenograft; assay: MM.1S subcutaneous human multiple myeloma xenograft model, efficacy; type: in vivo, NOD SCID mice
Experimental: • Species & Strain: NOD SCID mice • Age: 7-8 week • Total Number: 50 mice plus 40% spare • Sex: Female • Body Weight: 18 to 22 g Animal Maintenance
Groups and treatments started when the mean tumor volume reached about 100-150 mm^3. Based on the tumor volume, mice were randomly assigned to respective groups using a computer-generated randomization procedure.
Each mouse was inoculated subcutaneously on the right flank with MM.1S tumor cells (5×10^6) in 0.1 ml of RPMI-1640 without serum (mixed matrigel) for tumor development. The treatment started when the mean tumor size reached approximately 100-150 mm^3. Mice were then randomized into groups.
The measurement of tumor size was conducted twice weekly with a caliper and the tumor volume (mm^3) was estimated using the formula: TV=a×b^2/2, where “a” and “b” are long and short diameters of a tumor, respectively. The TVs were used for calculation of the tumor growth inhibition (TGI, an indicator of antitumor effectiveness) value using the formula: TGI=(1−T/C)×100%, where “T” and “C” is the mean relative volumes (% tumor growth) of the tumors in the treated and the control groups, respectively, on a given day after tumor inoculation. The experiment terminated when the mean tumor volume exceeded 2000 mm^3 or severe body weight loss was observed.

[4] = Liver microsome stability, mouse; type: in vitro ADME, mouse (CD-1; details: male, CD-1, mouse, pooled mouse liver microsomes, 1 μM compound, 0.5 mg/ml microsomes, 37° C., read-out: % recovery Mouse Liver Microsomes (MLM) (30 min)
Experimental: as §7, §8

| Structure (SMILES) | EC50 (BRD4-FL) [nM] | IC50 (BRD2-1: Domain 1 of BRD2) [nM] | IC50 (BRD3-1: Domain 1 of BRD3) [nM] | EC50 (BRD2-1) [nM] | IC50 [1] [nM] | EC50 (BRD3-1) [nM] | recovery at 30 min, 1 μM [2] [%] | tumor volume ([3]; 10 mg/kg, 30 mg/kg and 60 mg/kg PO QD × 21, 21 days post administration, dose dependent) | tumor volume compared with carfilzomib (CFZ) ([3]; 30 mg/kg and 60 mg/kg PO, 21 days post administration, CFZ 5 mg/kg IV) | antitumor activity ([3]; low-dose 10 mg/kg PO) | recovery at 30 min, 1 μM [4] [%] |
| --- | --- | --- | --- | --- | --- | --- | --- | --- | --- | --- | --- |
| COc1cc2c(cc1-c1c(C)noc1C)ncc1nc(C3CCOCC3)n([C@@H](C)COC(F)F)c12 [2(a), 4-[1-[(1S)-2-(difluoromethoxy)-1-methyl-ethyl]-8-methoxy-2-tetrahydropyran-4-yl-imidazo[4,5-c]quinolin-7-yl]-3,5-dimethyl-isoxazole] | 40.4 | 63 | 44 | 63.4 | 40 | 43.8 | – | – | – | – | – |
| COc1cc2c(cc1-c1c(C)noc1C)ncc1nc(C3CCOCC3)n([C@H](C)COC(F)F)c12 [2(g), 4-[1-[(1R)-2-(difluoromethoxy)-1-methyl-ethyl]-8-methoxy-2-tetrahydropyran-4-yl-imidazo[4,5-c]quinolin-7-yl]-3,5-dimethyl-isoxazole] | 7.17 | 24 | 17 | 6.89 | 14 | 2.76 | 43 | significantly reduced the tumor volume | reduced the tumor volume to a greater extent than carfilzomib | moderate antitumor activity | 55.5 |
| COc1cc2c(cc1-c1c(C)noc1C)ncc1nc(C3CCC(F)(F)CC3)n([C@H](C)COC(F)F)c12 [2(h), 4-[2-(4,4-difluorocyclohexyl)-1-[(1R)-2-(difluoromethoxy)-1-methyl-ethyl]-8-methoxy-imidazo[4,5-c]quinolin-7-yl]-3,5-dimethyl-isoxazole] | 46.2 | 47 | 31 | 27.3 | 21 | 6.96 | 62.3 | – | – | – | 35.2 |
| COc1cc2c(cc1-c1c(C)noc1C)ncc1nc(C3CCCCC3)n([C@H](C)COC(F)F)c12 [2(j), 4-[2-cyclohexyl-1-[(1R)-2-(difluoromethoxy)-1-methyl-ethyl]-8-methoxy-imidazo[4,5-c]quinolin-7-yl]-3,5-dimethyl-isoxazole] | – | – | – | – | – | – | 1.5 | – | – | – | 7 |
| COc1cc2c(cc1-c1c(C)noc1C)ncc1nc(C3CCCC3)n([C@H](C)COC(F)F)c12 [2(k), 4-[2-cyclopentyl-1-[(1R)-2-(difluoromethoxy)-1-methyl-ethyl]-8-methoxy-imidazo[4,5-c]quinolin-7-yl]-3,5-dimethyl-isoxazole] | – | – | – | – | – | – | 0.1 | – | – | – | 0.6 |
| COc1cc2c(cc1-c1c(C)noc1C)ncc1nc(C3CCOCC3)n(CCOC(F)F)c12 [2(n), 4-[1-[2-(difluoromethoxy)ethyl]-8-methoxy-2-tetrahydropyran-4-yl-imidazo[4,5-c]quinolin-7-yl]-3,5-dimethyl-isoxazole] | – | – | – | – | – | – | 58.1 | – | – | – | 74.8 |
| COc1cc2c(cc1-c1c(C)noc1C)ncc1nc(C3CCOCC3)n([C@H]3CC[C@H](OC(F)F)CC3)c12 [2(r)] | 406 | – | – | 281 | – | 104 | – | – | – | – | – |
| COc1cc2c(cc1-c1c(C)noc1C)ncc1nc(CN3CCOCC3)n([C@H](C)COC(F)F)c12 [3(a), 4-[[1-[(1R)-2-(difluoromethoxy)-1-methyl-ethyl]-7-(3,5-dimethylisoxazol-4-yl)-8-methoxy-imidazo[4,5-c]quinolin-2-yl]methyl]morpholine trihydrochloride] | 9.52 | 19 | 10 | 19.3 | 10 | 10 | 1.9 | – | – | – | 3.7 |
| COc1cc2c(cc1-c1c(C)noc1C)ncc1nc(CN(C)C)n([C@H](C)COC(F)F)c12 [3(b), 1-[1-[(1R)-2-(difluoromethoxy)-1-methyl-ethyl]-7-(3,5-dimethylisoxazol-4-yl)-8-methoxy-imidazo[4,5-c]quinolin-2-yl]-N,N-dimethyl-methanamine] | – | 32 | 18 | – | 32 | – | 13.7 | – | – | – | 0.5 |
| COc1cc2c(cc1-c1c(C)noc1C)ncc1nc(CN(C)C)n([C@H](C)COC(F)F)c12 [3(b).HCl] | 31.7 | – | – | 32.3 | – | 17.6 | – | – | – | – | – |
| COc1cc2c(cc1-c1c(C)noc1C)ncc1nc(CN3CCC(F)(F)CC3)n([C@H](C)COC(F)F)c12 [3(f), 4-[1-[(1R)-2-(difluoromethoxy)-1-methyl-ethyl]-2-[(4,4-difluoro-1-piperidyl)methyl]-8-methoxy-imidazo[4,5-c]quinolin-7-yl]-3,5-dimethyl-isoxazole] | – | – | – | – | – | – | 0.6 | – | – | – | 2.6 |
| CNCc1nc2cnc3cc(-c4c(C)noc4C)c(OC)cc3c2n1[C@H](C)COC(F)F [3(g)] | – | – | – | – | – | – | 58.5 | – | – | – | 0.1 |
| COc1cc2c(cc1-c1c(C)noc1C)ncc1nc(CN3CCC(F)(F)C3)n([C@H](C)COC(F)F)c12 [3(i)] | – | – | – | – | – | – | 7.4 | – | – | – | 10.4 |
| COc1cc2c(cc1-c1c(C)noc1C)ncc1nc(CN3CC(F)(F)C3)n([C@H](C)COC(F)F)c12 [3(j)] | – | – | – | – | – | – | 6.9 | – | – | – | 8 |
